Active and inactive are the calls of the source. The rule behind the calls is not given here.
Assays:
Leishmania donovani [1] = experiment: Antileishmanial activity against Leishmania donovani MHOM/IN/80/Dd8 promastigotes harboring luciferase reporter gene assessed as reduction in parasite viability after 48 hrs by MTT assay; format: functional, organism-based; conditions: MHOM/IN/80/Dd8, 48 h
Leishmania donovani [2] = experiment: Antileishmanial activity against Leishmania donovani promastigotes infected in BALB/c mouse assessed as inhibition in parasite burden in liver at 100 mg/kg, ip administered for 7 days starting at 15 days post-infection and measured after 1 week post last dose Giemsa staining-based assay relative to control; format: functional
Leishmania donovani [3] = experiment: Antileishmanial activity against Leishmania donovani promastigotes infected in BALB/c mouse assessed as inhibition in parasite burden in spleen at 50 mg/kg, ip administered for 7 days starting at 15 days post-infection and measured after 1 week post last dose Giemsa staining-based assay relative to control; format: functional
Leishmania donovani [4] = experiment: Antileishmanial activity against promastigote stage of Leishmania donovani MHOM/IN/80/Dd8 harboring luciferase reporter gene at 25 uM after 48 hrs by Steady-Glo luminescence assay relative to control; format: functional; conditions: MHOM/IN/80/Dd8, 48 h
[5] = Cytotoxicity against African green monkey Vero cells assessed as cell viability up to 100 uM after 72 hrs by MTT assay relative to control; format: cell-based; conditions: chlorocebus sabaeus, read-out: Activity
Leishmania donovani [6] = experiment: Induction of ROS generation in Leishmania donovani promastigotes at 50 uM after 24 hrs by H2DCFDA probe based flow cytometry (reference value: 1.97%); format: functional
[7] = Clearance in BALB/c mouse at 50 mg/kg, ip by HPLC analysis; format: ADME, organism-based; conditions: in vivo
[8] = AUC(0 to 24 hrs) in BALB/c mouse at 50 mg/kg, ip by HPLC analysis; format: ADME, organism-based; design: dose 50 mg/kg, time < 24 hr, route intraperitoneal; conditions: in vivo
Leishmania donovani [9] = experiment: Induction of ROS generation in Leishmania donovani promastigotes at 50 uM after 48 hrs by H2DCFDA probe based flow cytometry (reference value: 1.97%); format: functional
Leishmania donovani [10] = experiment: Induction of mitochondrial membrane depolarization in Leishmania donovani promastigotes assessed as swelling of mitochondria at 50 uM after 24 hrs by TEM analysis; format: functional, organism-based
[11] = Cytotoxicity against mouse J774 cells assessed as reduction in cell viability after 72 hrs by MTT assay; format: cell-based
Leishmania donovani [12] = experiment: Antileishmanial activity against promastigote stage of Leishmania donovani MHOM/IN/80/Dd8 harboring luciferase reporter gene at 50 uM after 48 hrs by Steady-Glo luminescence assay relative to control; format: functional; conditions: MHOM/IN/80/Dd8, 48 h
[13] = Toxicity in golden hamster infected with Leishmania donovani amastigotes assessed as reduction in serum AST level at 50 mg/kg , ip and measured after 10 weeks post infection (reference value: 113 U/L); format: organism-based, Mesocricetus auratus; conditions: in vivo, 1680 h
Leishmania donovani [14] = experiment: Induction of membrane depolarization in Leishmania donovani promastigotes assessed as increase in fluorescence at MIC by DiBAC4 dye based flow cytometry analysis; format: functional, organism-based; conditions: TDE = time-dependent effect
[15] = Cytotoxicity against BALB/c mouse splenocytes assessed as cell viability at 200 uM after 72 hrs by MTT assay relative to control; format: cell-based, Splenocyte; conditions: read-out: Activity
Leishmania donovani [16] = experiment: Antileishmanial activity against Leishmania donovani MHOM/IN/80/Dd8 amastigotes harboring luciferase reporter gene infected in mouse J774 cells at 100 uM after 72 hrs by Steady-Glo luminescence assay relative to control; format: functional; conditions: MHOM/IN/80/Dd8, J774, 72 h
[17] = Cytotoxicity against mouse J774 cells assessed as cell viability up to 100 uM after 72 hrs by MTT assay relative to control; format: cell-based; conditions: read-out: Activity
[18] = Cytotoxicity against African green monkey Vero cells assessed as cell viability at 100 uM by MTT assay relative to control; format: cell-based; conditions: chlorocebus sabaeus, read-out: Activity
Leishmania donovani [19] = experiment: Antileishmanial activity against Leishmania donovani promastigotes infected in BALB/c mouse assessed as inhibition in parasite burden in spleen at 200 mg/kg, ip administered for 7 days starting at 15 days post-infection and measured after 1 week post last dose Giemsa staining-based assay relative to control; format: functional
Leishmania donovani [20] = experiment: Induction of apoptosis in Leishmania donovani promastigotes assessed as early apoptotic cells at 50 uM after 48 hrs by Annexin-V/propidium iodide staining based flow cytometric method (reference value: 5.79%); format: functional
Leishmania donovani [21] = experiment: Induction of membrane depolarization in Leishmania donovani promastigotes assessed as increase in fluorescence at IC50 by DiBAC4 dye based flow cytometry analysis; format: functional, organism-based; conditions: TDE = time-dependent effect
[22] = Toxicity in golden hamster infected with Leishmania donovani amastigotes assessed as effect on survival at 12.5 to 200 mg/kg, ip administered on alternative days for 4 weeks starting at 4 weeks post-infection; format: organism-based, Mesocricetus auratus; conditions: in vivo, 672 h
J774 = experiment: Immunostimulatory activity in mouse J774 cells infected with Leishmania donovani promastigotes assessed as reduction in IL-10 cytokine production at 50 uM after 48 hrs by ELISA; format: functional, cell-based
Leishmania donovani [23] = experiment: Induction of mitochondrial dysfunction in Leishmania donovani promastigotes assessed as reduction in mitochondrial membrane potential at 50 uM after 3 hrs by JC-1 staining-based flow cytometric analysis (reference value: 7.73%); format: functional; design: scale not given: the % may be the effect or the level left
[24] = Selectivity index, ratio of CC50 for African green monkey Vero cells to IC50 for antileishmanial activity against Leishmania donovani MHOM/IN/80/Dd8 amastigotes harboring luciferase reporter gene; format: toxicity; conditions: read-out: Ratio CC50/IC50
[25] = Cytotoxicity against African green monkey Vero cells assessed as reduction in cell viability after 72 hrs by MTT assay; format: cell-based; conditions: chlorocebus sabaeus
[26] = Cytotoxicity against BALB/c mouse splenocytes assessed as cell viability at 100 uM after 72 hrs by MTT assay relative to control; format: cell-based, Splenocyte; conditions: read-out: Activity
Leishmania donovani [27] = experiment: Antileishmanial activity against Leishmania donovani amastigotes infected in golden hamster assessed as reduction in parasite burden in spleen at 50 mg/kg, ip administered on alternative days for 4 weeks starting at 4 weeks post-infection and measured after 2 week post last dose Giemsa staining-based assay relative to control; format: functional
Leishmania donovani [28] = experiment: Inhibition of ubiquinol cytochrome c reductase in Leishmania donovani promastigotes mitochondria at 8.1 to 50 uM using decylubiquinol as substrate in presence of cytochrome c
Leishmania donovani [29] = experiment: Induction of apoptosis in Leishmania donovani promastigotes assessed as late apoptotic cells at 50 uM after 24 hrs by Annexin-V/propidium iodide staining based flow cytometric method (reference value: 0.59%); format: functional
[30] = Toxicity in BALB/c mouse infected with Leishmania donovani promastigotes assessed as effect on body weight at 12.5 to 200 mg/kg, ip administered for 7 days starting at 15 days post-infection; format: organism-based; conditions: in vivo
Leishmania donovani [31] = experiment: Antileishmanial activity against promastigote stage of Leishmania donovani MHOM/IN/80/Dd8 harboring luciferase reporter gene at 100 uM after 48 hrs by Steady-Glo luminescence assay relative to control; format: functional; conditions: MHOM/IN/80/Dd8, 48 h
Leishmania donovani [32] = experiment: Antileishmanial activity against Leishmania donovani promastigotes infected in BALB/c mouse assessed as inhibition in parasite burden in liver at 200 mg/kg, ip administered for 7 days starting at 15 days post-infection and measured after 1 week post last dose Giemsa staining-based assay relative to control; format: functional
Leishmania donovani [33] = experiment: Induction of ROS generation in Leishmania donovani promastigotes at 50 uM after 6 hrs by H2DCFDA probe based flow cytometry (reference value: 1.97%); format: functional
Leishmania donovani [34] = experiment: Inhibition of […] in Leishmania donovani promastigotes mitochondria at 8.1 to 50 uM using decylubiquinol as substrate in presence of cytochrome c

Molecule `CCOC(=O)C(C(=O)c1ccc(OC)cc1)C(NC(C)=O)c1cccc2ccccc12` (stereo not given) has an IC50 (Leishmania donovani [1]) of 9.1 µM, an inhibition in vivo at 100 mg/kg (Leishmania donovani [2]) of 92.1% and an inhibition in vivo at 50 mg/kg (Leishmania donovani [3]) of 92.5%. For the same molecule, the inhibition at 25 µM (Leishmania donovani [4]) was 85.3%, the viability at 72 h [5] was > 93% and the Activity (Leishmania donovani [6]) was 85.54%. It also gave a CL/F [7] of 664 mL/min/kg, an AUC(0-t) at 24 h [8] of 1280 ng·h/mL and an Activity (Leishmania donovani [9]) of 65.74%. The Activity (Leishmania donovani [10]) was “Active”, the CC50 at 72 h [11] was > 350 µM and the inhibition at 50 µM (Leishmania donovani [12]) was 96.6%. The Activity [13] was 92 IU/L, the Activity (Leishmania donovani [14]) was “Tde” and the viability at 72 h, 200 µM [15] was > 84.3%. The inhibition at 100 µM (Leishmania donovani [16]) was 95.9%, the viability at 72 h [17] was > 93% and the viability at 100 µM [18] was 95.5%. The inhibition in vivo at 200 mg/kg (Leishmania donovani [19]) was 93.1%, the Activity (Leishmania donovani [20]) was 17.8% and the Activity (Leishmania donovani [21]) was “Tde”. For the same molecule, the Activity [22] was “Non-Toxic”, the Activity (J774) was “inactive” and the Activity (Leishmania donovani [23]) was 8.62%. The selectivity ratio [24] was 25.7, the CC50 at 72 h [25] was > 350 µM and the viability at 72 h, 100 µM [26] was > 90.2%. For the same molecule, the inhibition in vivo at 50 mg/kg (Leishmania donovani [27]) was 90.4%, the inhibition (Leishmania donovani [28]) was “Active” and the Activity (Leishmania donovani [29]) was 0.8%. The Activity [30] was “Non-Toxic”, the inhibition at 100 µM (Leishmania donovani [31]) was 97.1% and the inhibition in vivo at 200 mg/kg (Leishmania donovani [32]) was 92.1%. The Activity (Leishmania donovani [33]) was 30.3% and the inhibition (Leishmania donovani [34]) was “inactive”.

Source: ChEMBL document CHEMBL4406843, “β-Amino acid derivatives as mitochondrial complex III inhibitors of L. donovani: A promising chemotype targeting visceral leishmaniasis” (Eur J Med Chem, 2019)
